This assay has as its system CD8F1 mice, subcutaneous mammary adenocarcinoma, T/C%. Put plainly: NCI In Vivo Anticancer Drug Screen. Data for tumor model Mammary Adenocarcinoma CD8F1 (subcutaneous) in CD8F1. Particulars: higher = larger tumour. A digest of the protocol:
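Compound-treated versus vehicle-treated mice with transplantable tumors; survival or tumor size compared as T/C.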

The mark [1] stands for this setting: endpoint: median tumor weight (est.), dose: 12.5 mg/kg/injection, schedule: Q07DX005 (ip), vehicle: saline with Tween-80.
Where [2] appears, read: endpoint: median tumor weight (est.), dose: 50.0 mg/kg/injection, schedule: Q07DX005 (ip), vehicle: saline with Tween-80.
Where [3] appears, read: endpoint: median tumor weight (est.), dose: 400.0 mg/kg/injection, schedule: Q07DX005 (ip), vehicle: saline with Tween-80.
Setting [4] is: endpoint: median tumor weight change, dose: 62.5 mg/kg/injection, schedule: Q01DX001 (ip), vehicle: saline with Tween-80.
Where [5] appears, read: endpoint: median tumor weight change, dose: 125.0 mg/kg/injection, schedule: Q01DX001 (ip), vehicle: saline with Tween-80.
The mark [6] stands for this setting: endpoint: median tumor weight change, dose: 250.0 mg/kg/injection, schedule: Q01DX001 (ip), vehicle: saline with Tween-80.
The mark [7] stands for this setting: endpoint: median tumor weight change, dose: 500.0 mg/kg/injection, schedule: Q01DX001 (ip), vehicle: saline with Tween-80.

Several values for one entry are separate records, joined by “and”; a condition that tells them apart may be missing. Identical values can stand only once. Records with an inconclusive call do not appear.

Take `CCCCC(=O)OCC(=O)[C@]1(O)Cc2c(O)c3c(c(O)c2[C@@H](OC2CC(NC(=O)C(F)(F)F)C(O)C(C)O2)C1)C(=O)c1c(OC)cccc1C3=O` (some centres undefined): the T/C (endpoint: median tumor weight (est.), dose: 8.0 mg/kg/injection, schedule: Q07DX005 (ip), vehicle: distilled water + Tween-80) is 77 % of control; the T/C (endpoint: median tumor weight (est.), dose: 16.0 mg/kg/injection, schedule: Q07DX005 (ip), vehicle: distilled water + Tween-80) was 86 % of control; the T/C (endpoint: median tumor weight (est.), dose: 32.0 mg/kg/injection, schedule: Q07DX005 (ip), vehicle: distilled water + Tween-80) was 58 % of control; the T/C (endpoint: median tumor weight (est.), dose: 44.0 mg/kg/injection, schedule: Q07DX004 (ip), vehicle: clinical formulation) was 51 % of control; the T/C (endpoint: median tumor weight (est.), dose: 64.0 mg/kg/injection, schedule: Q07DX005 (ip), vehicle: distilled water + Tween-80) is 18 % of control; the T/C (endpoint: median tumor weight (est.), dose: 67.0 mg/kg/injection, schedule: Q07DX004 (ip), vehicle: clinical formulation) was 32 % of control. The T/C (endpoint: median tumor weight (est.), dose: 100.0 mg/kg/injection, schedule: Q07DX004 (ip), vehicle: clinical formulation) is 10 % of control; the T/C (endpoint: median tumor weight (est.), dose: 128.0 mg/kg/injection, schedule: Q07DX005 (ip), vehicle: distilled water + Tween-80) is 2 % of control; the T/C (endpoint: median tumor weight (est.), dose: 150.0 mg/kg/injection, schedule: Q07DX004 (ip), vehicle: clinical formulation) was 3 % of control; the T/C (endpoint: median tumor weight change, dose: 90.0 mg/kg/injection, schedule: Q01DX001 (ip), vehicle: clinical formulation) is 45 % of control.
Consider `CCCNC1=C(C)C(=O)C2=C(C1=O)[C@H](COC(N)=O)[C@]1(OC)[C@@H]3N[C@@H]3CN21`, for which the T/C is 7 % of control (endpoint: median tumor weight change, dose: 3.75 mg/kg/injection, schedule: Q01DX001 (ip), vehicle: saline); 13 % of control (endpoint: median tumor weight change, dose: 7.5 mg/kg/injection, schedule: Q01DX001 (ip), vehicle: saline); -66 % of control (endpoint: median tumor weight change, dose: 15.0 mg/kg/injection, schedule: Q01DX001 (ip), vehicle: saline).
For the compound `CCOC(=O)C(CC(C)C)NC(=O)C(Cc1ccc(N(CCCl)CCCl)cc1)NC(C)=O` (centres undefined), the T/C (endpoint: median tumor weight (est.), dose: 8.0 mg/kg/injection, schedule: Q07DX005 (ip), vehicle: saline with Tween-80) was 112 % of control; the T/C (endpoint: median tumor weight (est.), dose: 32.0 mg/kg/injection, schedule: Q07DX005 (ip), vehicle: saline with Tween-80) is 49 % of control and 58 % of control; the T/C (endpoint: median tumor weight (est.), dose: 64.0 mg/kg/injection, schedule: Q07DX005 (ip), vehicle: saline with Tween-80) was 9 % of control.
On to `CCOC(=O)c1ccc(NC(=O)Nc2nccs2)cc1`, for which the T/C runs as follows: under setting [1], 150 % of control; (endpoint: median tumor weight (est.), dose: 25.0 mg/kg/injection, schedule: Q07DX005 (ip), vehicle: saline with Tween-80) 46 % of control; under setting [2], 60 % of control; (endpoint: median tumor weight (est.), dose: 100.0 mg/kg/injection, schedule: Q07DX005 (ip), vehicle: saline with Tween-80) 96 % of control; (endpoint: median tumor weight (est.), dose: 200.0 mg/kg/injection, schedule: Q07DX005 (ip), vehicle: saline with Tween-80) 49 % of control; under setting [3], 43 % of control.
On to `Nc1nc(N)c2cc(S(=O)(=O)c3ccccc3)ccc2n1`, for which the T/C reads like this: under setting [4], 102 % of control; under setting [5], 109 % of control; under setting [6], 67 % of control; under setting [7], 42 % of control; (endpoint: median tumor weight change, dose: 1000.0 mg/kg/injection, schedule: Q01DX001 (ip), vehicle: saline with Tween-80) 40 % of control.
Regarding `CN(C)P(=O)(Oc1ccccc1)N(C)C`, the T/C under setting [4] is 86 % of control, the T/C under setting [5] is 63 % of control and the T/C under setting [7] was 94 % of control.
With `NC(Cc1ccc(N(CCCl)CCCl)cc1)C(=O)O` (centres undefined), the T/C is 39 % of control (endpoint: median tumor weight (est.), dose: 2.0 mg/kg/injection, schedule: Q07DX005 (ip), vehicle: Klucel (hydroxypropylcellulose) (HPC)) and 33 % of control (endpoint: median tumor weight (est.), dose: 4.0 mg/kg/injection, schedule: Q07DX005 (ip), vehicle: Klucel (hydroxypropylcellulose) (HPC)).
Consider `C[n+]1cccc(NC(=O)c2ccc(NC(=O)C34CCC(C(=O)Nc5ccc(C(=O)Nc6ccc[n+](C)c6)cc5)(CC3)CC4)cc2)c1`, for which the T/C was 57 % of control and 78 % of control (2×) (endpoint: median tumor weight change, dose: 50.0 mg/kg/injection, schedule: Q01DX001 (ip), vehicle: saline with Tween-80); -66 % of control (endpoint: median tumor weight change, dose: 200.0 mg/kg/injection, schedule: Q01DX001 (ip), vehicle: saline with Tween-80).
In the case of `CCCCN(CCCC)C(Cl)=Nc1ccccc1`, the T/C (endpoint: median tumor weight change, dose: 125.0 mg/kg/injection, schedule: Q01DX001 (ip), vehicle: Klucel (hydroxypropylcellulose) (HPC)) is 82 % of control and 107 % of control.
Take `CCC1=C[C@H]2CN(CCc3c([nH]c4ccccc34)[C@@](C(=O)OC)(c3cc4c(cc3OC)N(C)[C@H]3[C@@](O)(C(=O)NC)[C@H](OC(C)=O)[C@]5(CC)C=CCN6CC[C@]43[C@@H]65)C2)C1`: the T/C is, setting by setting: (endpoint: median tumor weight (est.), dose: 0.03 mg/kg/injection, schedule: Q07DX005 (ip), vehicle: water) 93 % of control; (endpoint: median tumor weight (est.), dose: 0.06 mg/kg/injection, schedule: Q07DX005 (ip), vehicle: water) 98 % of control; (endpoint: median tumor weight (est.), dose: 0.12 mg/kg/injection, schedule: Q07DX005 (ip), vehicle: water) 91 % of control; (endpoint: median tumor weight (est.), dose: 0.5 mg/kg/injection, schedule: Q07DX005 (ip), vehicle: saline) 86 % of control; (endpoint: median tumor weight (est.), dose: 0.5 mg/kg/injection, schedule: Q07DX005 (ip), vehicle: water) 73 % of control; (endpoint: median tumor weight (est.), dose: 1.0 mg/kg/injection, schedule: Q07DX005 (ip), vehicle: saline) 46 % of control. Also, the T/C is 57 % of control (endpoint: median tumor weight (est.), dose: 1.0 mg/kg/injection, schedule: Q07DX005 (ip), vehicle: water) and 3 % of control (endpoint: median tumor weight (est.), dose: 2.0 mg/kg/injection, schedule: Q07DX005 (ip), vehicle: water).
`COC(=O)Nc1cccc(-c2nc3ccc(NC(=O)OC)cc3c(=O)n2-c2ccccc2)c1`: the T/C was 180 % of control (endpoint: mean tumor weight, dose: 50.0 mg/kg/injection, schedule: Q07DX006 (ip), vehicle: saline); 167 % of control (endpoint: mean tumor weight, dose: 100.0 mg/kg/injection, schedule: Q07DX006 (ip), vehicle: saline); 101 % of control (endpoint: median tumor weight (est.), dose: 12.5 mg/kg/injection, schedule: Q04DX005 (ip), vehicle: saline); 79 % of control (endpoint: median tumor weight (est.), dose: 12.5 mg/kg/injection, schedule: Q07DX004 (ip), vehicle: saline); 103 % of control (endpoint: median tumor weight (est.), dose: 25.0 mg/kg/injection, schedule: Q07DX004 (ip), vehicle: saline); 109 % of control (endpoint: median tumor weight (est.), dose: 50.0 mg/kg/injection, schedule: Q04DX005 (ip), vehicle: saline). For the same compound, the T/C was 88 % of control (endpoint: median tumor weight (est.), dose: 50.0 mg/kg/injection, schedule: Q07DX004 (ip), vehicle: saline); 88 % of control (endpoint: median tumor weight (est.), dose: 200.0 mg/kg/injection, schedule: Q04DX005 (ip), vehicle: saline); 113 % of control (endpoint: median tumor weight (est.), dose: 200.0 mg/kg/injection, schedule: Q07DX004 (ip), vehicle: saline); 101 % of control (endpoint: median tumor weight (est.), dose: 400.0 mg/kg/injection, schedule: Q07DX004 (ip), vehicle: saline).
Regarding `C=C(Cl)C(=NC(C)(C)C)Nc1ccccc1C`, the T/C (endpoint: median tumor weight change, dose: 31.25 mg/kg/injection, schedule: Q01DX001 (ip), vehicle: Klucel (hydroxypropylcellulose) (HPC)) is 86 % of control and the T/C (endpoint: median tumor weight change, dose: 62.5 mg/kg/injection, schedule: Q01DX001 (ip), vehicle: Klucel (hydroxypropylcellulose) (HPC)) was 85 % of control.
Regarding `CCC/C=C/C=C/C(=O)OC1/C(=C/C(=O)OC)CC2CC(C(C)O)OC(=O)CC(O)CC3CC(OC(C)=O)C(C)(C)C(O)(CC4C/C(=C/C(=O)OC)CC(/C=C/C(C)(C)C1(O)O2)O4)O3` (centres undefined), the T/C (endpoint: median tumor weight change, dose: 0.02 mg/kg/injection, schedule: Q01DX001 (ip), vehicle: saline + alcohol) was 63 % of control; the T/C (endpoint: median tumor weight change, dose: 0.04 mg/kg/injection, schedule: Q01DX001 (ip), vehicle: saline + alcohol) was 115 % of control; the T/C (endpoint: median tumor weight change, dose: 0.09 mg/kg/injection, schedule: Q01DX001 (ip), vehicle: saline + alcohol) is 95 % of control; the T/C (endpoint: median tumor weight change, dose: 0.19 mg/kg/injection, schedule: Q01DX001 (ip), vehicle: saline + alcohol) is 22 % of control.
As to `COC1(OC)C2C=CC1CC2`, the T/C is 94 % of control under setting [4], 82 % of control under setting [5], 107 % of control under setting [6] and 58 % of control under setting [7].
As for `CCCC(=O)Oc1ccc(/C=N/NC(N)=S)nc1`, the T/C is 279 % of control and 100 % of control under setting [1]; 83 % of control and 101 % of control under setting [2]; 121 % of control under setting [3].
Take `CC1=C(C)C(=O)O[C@@H]([C@](C)(O)[C@]2(O)CC[C@@]3(O)[C@@H]4C[C@H]5O[C@]56[C@@H](O)C=CC(=O)[C@]6(C)[C@H]4CC[C@]23C)C1`: the T/C runs as follows: (endpoint: median tumor weight change, dose: 18.75 mg/kg/injection, schedule: Q01DX001 (ip), vehicle: saline) 104 % of control; (endpoint: median tumor weight change, dose: 37.5 mg/kg/injection, schedule: Q01DX001 (ip), vehicle: saline) 63 % of control; (endpoint: median tumor weight change, dose: 75.0 mg/kg/injection, schedule: Q01DX001 (ip), vehicle: saline) 61 % of control.

The values above are taken from PubChem BioAssay AID220 (DTP/NCI, 2004).
